Read-outs that look alike come from different tables or passages of the source.

One experiment has as its system MiaPaCa-2. Put plainly: IC50 concentration by MTT colorimetric assay. The experiment is classed as cell-based, human. The procedure:
(§1) MiaPaCa-2 and PANC-1 cells were trypsinized, washed, and incubated overnight in a humidified incubator. Each condition was performed in quadruplicate with 3×10^3 cells/well on a 96-well flat bottom plate. […] After drug treatment, 15 μL of the MTT dye solution was added to each well and incubated for 4 hours in a humidified incubator. The reaction was stopped by adding 100 μL of solubilization solution and the plate was incubated for an additional hour at room temperature. The wells were mixed and the absorbance was measured at 570 nm using a Synergy HTX Plate Reader. The % inhibition was calculated using the following equation: […]
Background: Formazan colour is commonly taken as a measure of viable cells.

For another experiment, the system named is PANC-1. Put plainly: IC50 concentration by MTT colorimetric assay. In kind it is cell-based, human. On the procedure:
as §1

The subject of a further experiment is CFPAC cells. Put plainly: IC50 concentration in CFPAC cells. In kind it is cell-based.
For a further experiment, the system named is BxPC-3 cells. Put plainly: IC50 concentration in BxPC-3 cells. The experiment is classed as cell-based.
A further experiment deals with L3.6. Put plainly: IC50 concentration in L3.6 cells. The experiment is classed as cell-based.
A further experiment deals with Pancreatic cancer (PC). To be noted: advanced or recurrent disease patients; cited from earlier work.

With `N.N.[Cl][Pt][Cl]` [CIS, cisplatin], the IC50 with MiaPaCa-2 (MiaPaCa-2, 72 hours treatment, MTT) amounted to 18.6 µM; in the experiment with MiaPaCa-2 (MiaPaCa-2, no unit printed at b274) it was 18.6 µM; with PANC-1 (PANC-1, 72 hours treatment, MTT), 14 µM; with PANC-1 (PANC-1, no unit printed at b274), 14 µM; with CFPAC cells (read-out: IC50 concentration), 10 µM; in the experiment with BxPC-3 cells, 6.9 µM. This compound also had an IC50 in the experiment on L3.6 of 16 µM.
Turning to `O=c1[nH]cc(F)c(=O)[nH]1` [5FU, 5 fluorouracil], the IC50 amounted to 5 µM in the experiment on CFPAC cells (no unit printed at b33, read-out: IC50 dose); 5 µM with CFPAC cells (read-out: IC50 concentration); 14.6 µM in the experiment with BxPC-3 cells (Homo sapiens).
Take `Nc1ccn([C@@H]2O[C@H](CO)[C@@H](O)C2(F)F)c(=O)n1` [Gem, gemcitabine]: the IC50 in the experiment with MiaPaCa-2 (Homo sapiens, MIA PaCa-2, MiaPaCa-2, 72 hours treatment, MTT) came out at 15.6 µM; in the experiment with L3.6, 12 µM. Moreover, the median survival in the experiment on Pancreatic cancer (PC) is given as 6.7 months.

(Values after patent US20220175836A1, “PRIMING WITH TARGETED ACTIVATED T CELLS CAN ENHANCE CHEMO RESPONSIVENESS OF CANCER CELLS” (University of Virginia Patent Foundation, priority 2019, published 2022).)
